Among the data in patent US20050075375A1 (priority 2003, published 2005) are EC50 values, retold here.

For the assay, the system named is monocistronic NK5.1 HCV replicon in Huh7 cells. Nature of the assay: HCV replicon assay, monocistronic replicon cell line. The format is cell-based, hepatitis C virus. To be noted: Hepatitis C virus, Huh-7, 72 h; Table 1; monocistronic replicon in Huh7 cells, 3 days incubation, HCV RNA/GAPDH RNA by TaqMan RT-PCR; read-out: Mono EC50 Median. An excerpt:
HCV Replicon Assays (Replicon EC50 (μM))
HCV replication can be measured by a replicon assay such as described by Vrolijk et al, J. Virol. Methods 110:201(2003), which is hereby incorporated in its entirety by reference. The method was implemented as follows.
Monocistronic Replicon Cell Line:
Human hepatocyte Huh7 cells containing the monocistronic NK5.1 replicon were obtained from Ralf Bartenschlager at the University of Mainz, Germany. These cells were maintained under hygromycin selection and passaged when 80-90% confluent.
This cell line contains an autonomously replicating RNA element (replicon) incorporating the non-structural HCV elements necessary for replication, and upon which the survival of the replicon in the cell depends. This replicon contains a single internal ribosome entry site (HCV IRES). Inhibition of any of the critical HCV finctions by a compound leads to loss of the replicon as measured by HCV replicon RNA copy number reduction. The amount of HCV RNA present following a standard incubation with a compound is a measure of the anti-HCV activity of the compound. The assay was conducted by preparing sufficient 96-well plates containing these cells, wherein cells are seeded at 6000 cells/well in a 96-well plate, in 200 μl of final media volume. Cells were then incubated for 24 hours at 37 C., 5% CO2, and 95% humidity before compound was added. Six point half-log concentration response assays were conducted to determine potency/EC50 of Formula I compounds to inhibit HCV replicon replication. The final percent DMSO acceptable in this assay system is 0.6%. Compounds were diluted in media in an appropriate format and 5 μl of each drug dilution is added to each well. Cells were then incubated with compounds for 3 days at 37 C., 5% CO2, and 95% humidity. Following the three day incubation period, plates were washed twice with phosphate buffered saline to remove media and cells were lysed with Qiagen extraction buffer. RNA was extracted and isolated with the Qiagen RNAeasy kit according to the manufacturer's protocol (Qiagen). TaqMan One-Step RT-PCR was used in conjunction with an ABI 7700 Sequence Detector (Applied Biosystems) for the quantitation and analysis of HCV replicon RNA copy number. A GAPDH probe was used for internal normalization. The ratio of HCV RNA to cellular GAPDH RNA was determined and compared to the DMSO-only treated control, and the ratio of HCV RNA/GAPDH RNA was used for an EC50 determination and as a measure of specificity for inhibition of the HCV replicon.

What is called EC50 is the midpoint of the concentration-response curve. As to `COc1ccc(OCc2ccccc2)c(-c2ccnn2-c2ccccn2)c1` [Compound 83, 2-[5-(2-Benzvloxy-5-methoxy-phenyl)-pvrazol-1-yl]-pyridine], the EC50 stood at 31 µM.
In the case of `COc1ccc(O)c(-c2ccn(-c3ccccn3)n2)c1` [Compound 84, 4-Methoxy-2-(1-pyridin-2-yl-1H-pyrazol-3-yl)-phenol], the EC50 amounted to 3.3 µM.
The same measure for `COc1ccc(O)c(-c2ccnn2-c2ccccn2)c1` [Compound 85, 4-Methoxy-2-(2-pyridin-2-yl-2H-pyrazol-3-yl)-phenol]: over 32 µM; for `COc1ccc(O)c(-c2ccn(-c3ncccc3C(F)(F)F)n2)c1` [Compound 86, 4-Methoxy-2-[1-(3-trifluoromethyl-pyridin-2-yl)-1H-pyrazol-3-yl]-phenol]: 7.8 µM; for `c1ccc(COc2ccc3ccccc3c2-c2ccn(-c3ccccn3)n2)cc1` [Compound 87, 2-[3-(2-Benzyloxy-naphthalen-1-yl)-pyrazol-1-yl]-pyridine]: over 32 µM.
The same measure for `COc1ccc(-c2ccn(-c3ccccn3)n2)c(O)c1` [Compound 88, 5-Methoxy-2-(1-pyridin-2-yl-1H-pyrazol-3-yl)-phenol]: over 32 µM.
`COc1ccc(-c2ccn(-c3ncccc3C(F)(F)F)n2)c(O)c1` [Compound 89, 5-Methoxy-2-[1-(3-trifluoromethyl-pyridin-2-yl)-1H-pyrazol-3-yl]-phenol]: the EC50 was 8.8 µM.
The same measure for `COc1ccc(-c2ccn(-c3ncccc3C(F)(F)F)n2)c(OCc2ccccc2)c1` [Compound 90]: 4.4 µM; for `COc1ccc(-c2ccn(-c3ncccc3C)n2)c(O)c1` [Compound 91, 5-Methoxy-2-[1-(3-methyl-pyridin-2-yl)-1H-pyrazol-3-yl]-phenol]: 9.1 µM.
The value for `COc1ccc(-c2ccn(-c3ncccc3C)n2)c(OCc2ccccc2)c1` [Compound 92, 2-[3-(2-Benzyloxy-4-methoxy-phenyl)-pyrazol-1-yl]-3-methyl-pyridine] was 5.2 µM; that for `COc1ccc(O)c(-c2ccn(-c3ncccc3C)n2)c1` [Compound 93, 4-Methoxy-2-[l-(3-methyl-pyridin-2-yl)-1H-pyrazol-3-yl]-phenol] was 9.1 µM.
The value for `Cc1c2c(=O)oc3ccccc3c2nn1-c1ccccn1` [Compound 94] was 8.9 µM; that for `COc1ccc2oc(=O)c3c(C)n(-c4ccccn4)nc3c2c1` [Compound 95] was 5.8 µM.
As for `COc1cccc(OCc2ccccc2)c1-c1ccn(-c2ccccn2)n1` [Compound 96, 2-[3-(2-Benzyloxy-6-methoxy-phenyl)-pyrazol-1-yl]-pyridine], the EC50 was found to be 8.6 µM.
Consider `Oc1ccc(Br)cc1-c1ccn(-c2ccccn2)n1` [Compound 97, 4-Bromo-2-(1-pyridin-2-yl-1H-pyrazol-3-yl)-phenol], for which the EC50 was 22 µM.
The value for `Brc1ccc(OCc2ccccc2)c(-c2ccn(-c3ccccn3)n2)c1` [Compound 98, 2-[3-(2-Benzyloxy-5-bromo-phenyl)-pyrazol-1-yl]-pyridine] was 15 µM.
The value for `Cc1cccnc1-n1ccc(-c2cc(Br)ccc2O)n1` [Compound 99, 4-Bromo-2-[1-(3-methyl-pyridin-2-yl)-1H-pyrazol-3-yl]-phenol] was 3.6 µM; that for `Oc1ccc(Br)cc1-c1ccn(-c2ncccc2C(F)(F)F)n1` [Compound 100, 4-Bromo-2-[1-(3-trifluoromethyl-pyridin-2-yl)-1H-pyrazol-3-yl]-phenol] was 2.3 µM; that for `COc1ccc(O)c(-c2ccn(Cc3ncc(C)c(OC)c3C)n2)c1` [Compound 101, 4-Methoxy-2-[1-(4-methoxy-3,5-dimethyl-pyridin-2-ylmethyl)-1H-pyrazol-3-yl]-phenol] was 14.6 µM.
The same measure for `COc1ccc(O)c(-c2ccn(-c3ccc(C(=O)N4CCCCC4)cn3)n2)c1` [Compound 102, {6-[3-(2-Hydroxy-5-methoxy-phenyl)-pyrazol-1-yl]-pyridin-3-yl)-piperidin-1-yl-methanone]: over 32 µM; for `COc1ccc(OCc2ccccc2)c(-c2ccn(Cc3nccc(OC)c3OC)n2)c1` [Compound 103, 2-[3-(2-Benzyloxy-5-methoxy-phenyl)-pyrazol-1-ylmethyl]-3,4-dimethoxy-pyridine]: over 32 µM.
As to `COc1ccc(O)c(-c2ccn(-c3ncccc3C(=O)N3CCCCC3)n2)c1` [Compound 104, {2-[3-(2-Hydroxy-5-methoxy-phenyl)-pyrazol-1-yl]-pyridin-3-yl}-piperidin-1-yl-methanone], the EC50 is over 32 µM.
The value for `COc1ccc(O)c(-c2ccn(Cc3nccc(OC)c3OC)n2)c1` [Compound 105, 2-[1-(3,4-Dimethoxy-pyridin-2-ylmethyl)-1H-pyrazol-3-yl]-4-methoxy-phenol] was over 32 µM; that for `Oc1ccc(Br)cc1-c1ccnn1-c1ncccc1C(F)(F)F` [Compound 106, 4-Bromo-2-[2-(3-trifluoromethyl-pyridin-2-yl)-2H-pyrazol-3-yl]-phenol] was 15 µM.
For `FC(F)(F)c1cccnc1-n1nccc1-c1cc(Br)ccc1OCc1ccccc1` [Compound 107, 2-[5-(2-Benzyloxy-5-bromo-phenyl)-pyrazol-1-yl]-3-trifluoromethyl-pyridine], the EC50 was determined as 2.6 µM.
The value for `FC(F)(F)c1cccnc1-n1ccc(-c2cc(Br)ccc2OCc2ccccc2)n1` [Compound 108, 2-[3-(2-Benzyloxy-5-bromo-phenyl)-pyrazol-1-yl]-3-trifluoromethyl-pyridine] was over 32 µM; that for `COc1ccc(O)c(-c2ccnn2Cc2ccc3ccccc3n2)c1` [Compound 109, 4-Methoxy-2-(2-quinolin-2-ylmethyl-2H-pyrazol-3-yl)-phenol] was over 32 µM; that for `COc1ccc(OCc2ccccc2)c(-c2ccnn2Cc2ccc3ccccc3n2)c1` [Compound 110, 2-[5-(2-Benzyloxy-5-methoxy-phenyl)-pyrazol-1-ylmethyl]-quinoline] was 8 µM.
The same measure for `COc1ccc(O)c(-c2ccn(Cc3ccc4ccccc4n3)n2)c1` [Compound 111, 4-Methoxy-2-(1-quinolin-2-ylmethyl-1H-pyrazol-3-yl)-phenol]: 14 µM.
The value for `COc1ccc(OCc2ccccc2)c(-c2ccn(Cc3ccc4ccccc4n3)n2)c1` [Compound 112, 2-[3-(2-Benzyloxy-5-methoxy-phenyl)-pyrazol-1-ylmethyl]-quinoline] was 6 µM.
Regarding `COc1ccc(O)c(-c2ccn(Cc3ccccn3)n2)c1` [Compound 113, 4-Methoxy-2-(1-pyridin-2-ylmethyl-1H-pyrazol-3-yl)-phenol], the EC50 is over 32 µM.
The same measure for `COc1ccc(OCc2ccccc2)c(-c2ccn(Cc3ccccn3)n2)c1` [Compound 114, 2-[3-(2-Benzyloxy-5-methoxy-phenyl)-pyrazol-1-ylmethyl]-pyridine]: 9.5 µM.
As to `COc1ccc(O)c(-c2ccnn2Cc2ccccn2)c1` [Compound 115, 4-Methoxy-2-(2-pyridin-2-ylmethyl-2H-pyrazol-3-yl)-phenol], the EC50 is over 32 µM.
The same measure for `COc1ccc(OCc2ccccc2)c(-c2ccnn2Cc2ccccn2)c1` [Compound 116, 2-[5-(2-Benzyloxy-5-methoxy-phenyl)-pyrazol-1-ylmethyl]-pyridine]: 13 µM; for `COc1ccc(O)c(-c2ccn(-c3ncccc3[N+](=O)[O-])n2)c1` [Compound 117, 4-Methoxy-2-[1-(3-nitro-pyridin-2-yl)-1H-pyrazol-3-yl]-phenol]: 25.4 µM.
The value for `COc1ccc(-c2ccn(-c3ccccn3)n2)c(O)c1OC` [Compound 118, 2,3-Dimethoxy-6-(1-pyridin-2-yl-1H-pyrazol-3-yl)-phenol] was 23.8 µM.
In the case of `COc1ccc(-c2ccn(-c3ncccc3C)n2)c(O)c1OC` [Compound 119, 2,3-Dimethoxy-6-[1-(3-methyl-pyridin-2-yl)-1 H-pyrazol-3-yl]-phenol], the EC50 turned out to be 11.8 µM.
The same measure for `COc1cc(O)c(-c2ccn(-c3ccccn3)n2)cc1OC` [Compound 120, 4,5-Dimethoxy-2-(1-pyridin-2-yl-1H-pyrazol-3-yl)-p henol]: 31.2 µM; for `COc1cc(OCc2ccccc2)c(-c2ccn(-c3ccccn3)n2)cc1OC` [Compound 121, 2-[3-(2-Benzyloxy-4,5-dimethoxy-phenyl)-pyrazol-1-yl]-pyridine]: 13.5 µM.
The same measure for `COc1cc(O)c(-c2ccn(-c3ncccc3C)n2)cc1OC` [Compound 122, 4,5-Dimethoxy-2-[l-(3-methyl-pyridin-2-yl)-1H-pyrazol-3-yl]-phenol]: 13 µM.
